Reference: US10039806B2, “Methods and compositions for treating antiprogestin-resistant cancers” (Fundación Sales, priority 2011, dated 2018)

Columns and labels:
C4-2-HI and 59-HI cells = test: (3H)-thymidine incorporation with 5azadC and RU-486 in 10% FCS; type: cell-based, mouse; conditions: 5 μM 5azadC, 100 nM RU-486; P<0.001
Procedure: (3H)-thymidine-uptake was used as an indirect method to evaluate cell proliferation. In brief, cells were seeded into 96-well microplates. After attachment (24 h), the cells were incubated for 24 h with 1% steroid-stripped FCS and then for 48 h with the experimental solutions to be tested in 1% chFCS. Fifty percent of the medium was replaced with fresh medium every 24 h. […] In experiments in which 5azadC was used, the experiments were carried out using proliferating cells (presence of 10% FCS) to guarantee the effect of the demethylating agent. Three different experiments were made using octuplicates, and the means and standard deviations of one representative experiment of the other three are shown.

[1] = system: PRA and PRB in C4-2-HI and 59-HI cells; test: PR isoform expression after 5azadC in vitro (immunofluorescence, western blot); type: cell-based, mouse; conditions: 96 h
Procedure: C4-2-HI and 59-HI epithelial cells from primary cell cultures were allowed to attach for 24 h. The medium was replaced with fresh medium with 10% FCS, and 5azadC was added for 96 h. The medium was refreshed daily. Cells were processed for western blot or immunofluorescence to evaluate PR expression.
Cytosolic or nuclear extracts were processed for western blots as described previously. The cells were lysed using Mammalian Protein Extraction Reagent (Pierce, Rockford, Ill.) according the manufacturer's instructions. […] The band intensities from 3 to 4 different tumor samples indifferent western blots were quantified using Image Quant software.
Frozen sections or cells grown in chamber slides, fixed in 70% ethanol for 1 h, were incubated with antibodies recognizing Dnmt1, Dnmt3a, Dnmt3b, PRA (Ab-7), RPB (Ab-6), or GR, in blocking buffer at a 1:200 dilution overnight at 4° C. […] Stained cells were analyzed using a Nikon Eclipse E800 Laser Confocal Microscope and EZ-C1 2.20 software. Cell staining was quantified using Image Quant software.

59-HI tumors = test: Constitutive-resistant tumor transplanted s.c. in BALB/c mice; type: in vivo, mouse
Procedure: (§1) C4-2-HI, 59-HI, and C4-HIR tumors were transplanted s.c nearby the mammary gland 4th in syngenic mice, and measured every 2 days (length and width). Treatments were initiated when the tumors were palpable. […] The mice were inoculated intraperitoneally (i.p.) with 0.75 mg/kg 5azadC (for C4-2-HI and C4-HIR tumors) or 1 mg/kg 5azadC (for 59-HI tumors) every other day. All the experiments were repeated twice using five mice per group. The animals were euthanized after 13 days of treatment, and tumor samples were removed and frozen at −80° C. or fixed in 10% formaldehyde.
(§2) Cytosolic or nuclear extracts were processed for western blots as described previously. The cells were lysed using Mammalian Protein Extraction Reagent (Pierce, Rockford, Ill.) according the manufacturer's instructions. The western blot membranes were incubated with antibodies against PR (C-19, Santa Cruz Biotech, CA, or Ab-7, Neomarkers, Lab Vision Corp, Fremont, Calif.), PRB (Ab-6, Neomarkers), ERKs (SC-94, Santa Cruz Biotech), E-Cad (610182, BD), Actin (1-19, Santa Cruz Biotech), DnmtI, Dnmt3a and Dnmt3b (H-300, H-295, and H-230, respectively, Santa Cruz Biotech), RARβ (SC-14028, Santa Cruz Biotech), PTEN Ab32199, Abcam), p16 (SC-1207, Santa Cruz Biotech), Rb (SC-50, Santa Cruz Biotech), or glucocorticoid receptors (GRs) (SC-1004, Santa Cruz Biotech) overnight at 4° C., at a concentration of 2 μg/ml in PBST (0.8% NaCl, 0.02% KCl, 0.144% Na2PO4, 0.024% KH2PO4, pH 7.4, 0.1% Tween 20). The band intensities from 3 to 4 different tumor samples indifferent western blots were quantified using Image Quant software.
(§3) Sections of formalin-fixed, paraffin-embedded tissue were processed as previously described and stained with the PRA-specific antibody (C-19) using the avidin-biotin-peroxidase complex technique (Vectastain Elite ABC kit; Vector), as described previously.
(§4) H&E stained sections of livers, spleens, and kidneys from the 5azadC-treated mice (1 mg/kg or 0.75 mg/kg/every other day; n=5) were studied by an expert mouse pathologist. The percentage of tumor stoma versus tumor parenchyma was quantified with the ImageJ software in treated and untreated tumors. The stromal area in relation to the total tumor area was calculated in five representative fields of each sample, using 400× magnification, in three different tumor samples of each group, and the mean±SEM was calculated. Mitotic and apoptotic indices were counted in 10 and 15 high-power fields (HPFs), respectively, of each section, using 1000× magnification, and expressed as the mean±SEM of the percentage of the ratios between the total number of events (mitosis or apoptosis) and the total cell number per HPF. Mitotic figures were identified morphologically by the condensed “hairy” aspect of the chromosomes. Morphological identification of apoptosis was performed according to criteria previously reported, which correlated with the deoxynucleotidyl transferase mediated dUTP-biotin nick end labeling (TUNEL) method.
(§5) C4-2-HI and 59-HI tumors were transplanted s.c nearby the mammary gland 4th in syngenic mice, and measured every 2 days (length and width). Treatments were initiated when the tumors were palpable. […] The mice were inoculated intraperitoneally (i.p.) with 0.75 mg/kg 5azadC every other day and s.c. with 1 mg/kg TSA every other day. All the experiments were repeated twice using five mice per group. The animals were euthanized after 13 days of treatment, and tumor samples were removed and frozen at −80 C or fixed in 10% formaldehyde.

C4-2-HI tumors = test: as above; type: in vivo, mouse
Procedure: as §1, §2, §3, §4, §5

[2] = Histology of livers, spleens and kidneys of 5azadC-treated mice; type: in vivo, mouse; conditions: 0.75 and 1 mg/kg every other day
Procedure: as §4

GR in C4-2-HI cells = test: GR expression in vitro (immunofluorescence); type: cell-based, mouse; conditions: 5×10^-7 M, 96 h
Procedure: Frozen sections or cells grown in chamber slides, fixed in 70% ethanol for 1 h, were incubated with antibodies recognizing Dnmt1, Dnmt3a, Dnmt3b, PRA (Ab-7), RPB (Ab-6), or GR, in blocking buffer at a 1:200 dilution overnight at 4° C. They were then incubated with a FITC conjugated anti-rabbit (FI-1000, Vector Laboratories Burlingame, Calif.; 1:100 dilution) secondary antibody for 1 h at room temperature. Nuclei were stained with propidium iodide (PI, Sigma). The slides were mounted using Vectashield (Vector Laboratories). Stained cells were analyzed using a Nikon Eclipse E800 Laser Confocal Microscope and EZ-C1 2.20 software. Cell staining was quantified using Image Quant software.

C4-2-HI cells = test: (3H)-thymidine uptake, primary cultures of purified epithelial cells; type: cell-based, mouse; conditions: 48 h, 1% chFCS
Procedure: (§6) Epithelial cells and carcinoma-associated fibroblasts were separated by differential sedimentation and plated with 10% FCS. Carcinoma-associated fibroblasts were allowed to attach for 0.5 h and the epithelial cells for 24-48 h. The medium was replaced by fresh medium with 10% FCS; thereafter, it was changed every 2-3 days.
(§7) (3H)-thymidine-uptake was used as an indirect method to evaluate cell proliferation. In brief, cells were seeded into 96-well microplates. After attachment (24 h), the cells were incubated for 24 h with 1% steroid-stripped FCS and then for 48 h with the experimental solutions to be tested in 1% chFCS. Fifty percent of the medium was replaced with fresh medium every 24 h. The cells were incubated with 0.4 μCi of 3H-thymidine (specific activity: 20 Ci/mmol) for 24 h, trypsinized, and harvested in a cell harvester. In experiments in which 5azadC was used, the experiments were carried out using proliferating cells (presence of 10% FCS) to guarantee the effect of the demethylating agent. Three different experiments were made using octuplicates, and the means and standard deviations of one representative experiment of the other three are shown. The results are expressed as the proliferation index (cpm […] experimental group/cpm control; mean±SEM).

C4-HI cells = test: as above; type: cell-based, mouse; conditions: 48 h, 1% chFCS; P<0.001
Procedure: as §6, §7

C4-HIR cells = test: as above; type: cell-based, mouse; conditions: 48 h, 1% chFCS; P<0.001
Procedure: as §6, §7

[3] = system: C4-HI or C4-HIR epithelial cells with carcinoma-associated fibroblasts; test: (3H)-thymidine uptake, co-cultures with carcinoma-associated fibroblasts; type: cell-based, mouse; conditions: own or other tumor's fibroblasts
Procedure: Trypsinized cells were resuspended and equal amounts of epithelial cells and carcinoma-associated fibroblasts were seeded with 10% FCS that was replaced after attachment by 1% steroid-stripped FCS. […] The same amount of epithelial cells or carcinoma-associated fibroblasts or double the amount of purified cells was used for comparison.
as §7

T47D cells = conditions: 5% FCS; cited from earlier work

In the case of `Nc1ncn([C@H]2C[C@H](O)[C@@H](CO)O2)c(=O)n1` [5azadC, 5-aza-2′-deoxycytidine], the “cell proliferation, (3H)-thymidine incorporation” value (C4-2-HI and 59-HI cells) is reported as “did not alter cell proliferation”, the PRA expression ([1]; 5×10^-7 M (C4-2-HI), 5×10^-6 M (59-HI), P<0.001) is reported as “increase in PRA expression” and the “PRB staining (Ab-6 antibody)” value [1] is reported as “no significant changes”. For the same compound, the “PRA staining (immunohistochemistry)” value (59-HI tumors; 5azadC-treated tumors) was “only cytoplasmic and perinuclear PRA staining”, the “PRA expression (western blots)” value (59-HI tumors; P<0.01) was “increase in PRA expression” and the tumor growth (59-HI tumors; RU-486 12 mg/kg/day s.c., 5azadC 1 mg/kg every other day i.p., 13 days) was “no significant differences”. The PRB level (59-HI tumors; not shown) was “not significantly modified”, the “PRA staining (immunohistochemistry)” value (C4-2-HI tumors; 5azadC-treated vs control tumors) was “increase in nuclear and cytoplasmic PRA staining” and the “PRA expression (western blots)” value (C4-2-HI tumors; P<0.01) was “increase in PRA expression”. The tumor growth (C4-2-HI tumors; RU-486 12 mg/kg/day s.c., 5azadC 0.75 mg/kg every other day i.p., 13 days) was “no significant differences”, the PRB level (C4-2-HI tumors; not shown) was “not significantly modified” and the “expression of GR (western blots)” value (C4-2-HI tumors; tumors from 5azadC-treated mice) was “decreased”. The “Histological evaluation of liver, spleen, and kidney” value [2] was “no signs of toxicity” and the “expression of GR (immunofluorescence)” value (GR in C4-2-HI cells) was “decreased”.
For `CC(=O)O[C@]1(C(C)=O)CC[C@H]2[C@@H]3C[C@H](C)C4=CC(=O)CC[C@]4(C)[C@H]3CC[C@@]21C` [MPA, medroxyprogesterone acetate], the “cell proliferation (proliferation index)” value (C4-2-HI cells) was “no differences were observed”, the “cell proliferation (proliferation index)” value (C4-HI cells) was “strong proliferative effect” and the “cell proliferation (proliferation index)” value (C4-HIR cells) was “proliferative effect”. For the same compound, the co-culture cell proliferation [3] was “stimulated” and the “effects on T47D cells” value (T47D cells) was “inhibitory effects”.
